Data from patent US20230135093A1, “TRIAZOLYL DERIVATIVES AS GABA A ALPHA5 PAM” (Hoffmann-La Roche Inc., priority 2020, published 2023).

Key:
h-GABA-A α5β3γ2 [1] = molecular target: T1, h-GABA-A α5β3γ2 (Homo sapiens, UniProt P18507+P31644); assay: Two-electrode voltage clamp electrophysiology in Xenopus oocytes expressing GABAA receptors (modulation of GABA EC20 current); assay type: cell-based; settings: Table 1; for Efficacy (GABA) %: % modulation of GABA EC20 = 100*(Fold increase-1); for Fold increase h-GABA-A α5β3γ2 oocyte: Xenopus oocytes, GABA EC20, test compound at approximatively 30 fold its Ki
T1 construct: expressed in transfected cells; host or cells: Xenopus laevis oocytes, micro-injected with subunit RNA
Method in brief: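 GABA EC20 currents in human α5β3γ2-expressing Xenopus oocytes, voltage-clamped at −80 mV (room temperature, pH 7.4), measured with and without compound at ~30× Ki applied 0.5 min into the second GABA pulse. % modulation = 100×(fold increase−1), taken from the extremum of the current ratio trace; at least 3 oocytes per concentration.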

h-GABA-A α5β3γ2 [2] = molecular target: T1, h-GABA-A α5β3γ2; assay: [3H]flumazenil competition binding assay on membranes of HEK293 cells expressing GABAA receptors; settings: Table 1; displacement of [3H]-Flumazenil (0.5 nM), HEK293 cells expressing human receptors, means of two determinations
Method in brief: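 Competition for [3H]flumazenil (0.5 nM for α5 subunits) was measured at equilibrium (1 h, 4 °C, Krebs-tris buffer pH 7.5) on transiently transfected HEK293 membranes bearing human α5β3γ2 receptors, with 10^−5 M diazepam defining nonspecific binding. Ki values were derived from filtration and scintillation counting, averaged over duplicates.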

Efficacy (GABA) % (h-GABA-A α5β3γ2 [1])	Fold increase h-GABA-A α5β3γ2 oocyte (h-GABA-A α5β3γ2 [1])	Ki (h-GABA-A α5β3γ2 [2])	SMILES
58%	1.58	8 nM	Cn1nnc(-c2ccc(Cl)cc2F)c1Cn1ncc(N2CC(Oc3cncc(C(F)(F)F)n3)C2)cc1=O [Example 98, 2-[[5-(4-chloro-2-fluoro-phenyl)-3-methyl-triazol-4-yl]methyl]-5-[3-[6-(trifluoro-methyl)pyrazin-2-yl]oxyazetidin-1-yl]pyridazin-3-one]
86%	1.86	4.6 nM	Cc1nccc(OC2CN(c3cnn(Cc4c(-c5ccc(Cl)cc5F)nnn4C)c(=O)c3)C2)n1 [Example 99, 2-[[5-(4-chloro-2-fluoro-phenyl)-3-methyl-triazol-4-yl]methyl]-5-[3-(2-methylpyrimidin-4-yl)oxyazetidin-1-yl]pyridazin-3-one]
79%	1.79	15.9 nM	Cn1nnc(-c2ccc(Cl)cc2F)c1Cn1ncc(N2CC(Oc3ccnc(C(F)(F)F)n3)C2)cc1=O [Example 100, 2-[[5-(4-chloro-2-fluoro-phenyl)-3-methyl-triazol-4-yl]methyl]-5-[3-[2-(trifluoromethyl)pyrimidin-4-yl]oxyazetidin-1-yl]pyridazin-3-one]
126%	2.26	9.2 nM	CCn1nnc(-c2ccc(Cl)cc2F)c1Cn1ncc(N2CC(Oc3ccc(Cl)nc3)C2)cc1=O [Example 101, 2-[[5-(4-chloro-2-fluoro-phenyl)-3-ethyl-triazol-4-yl]methyl]-5-[3-[(6-chloro-3-pyridyl)oxy]azetidin-1-yl]pyridazin-3-one]
164%	2.64	20.2 nM	CCn1nnc(-c2ccc(Cl)cc2F)c1Cn1ncc(N2CC(Oc3cccnn3)C2)cc1=O [Example 102, 2-[[5-(4-chloro-2-fluoro-phenyl)-3-ethyl-triazol-4-yl]methyl]-5-(3-pyridazin-3-yloxyazetidin-1-yl)pyridazin-3-one]
106%	2.06	10.4 nM	CCOc1ccc(-c2cnn(Cc3c(-c4ccc(Cl)cc4F)nnn3C)c(=O)c2)cn1 [Example 103, 2-((5-(4-chloro-2-fluoro-phenyl)-3-methyl-triazol-4-yl)methyl)-5-(6-ethoxy-3-pyridyl)pyridazin-3-one]
158%	2.58	11.8 nM	COc1ncc(-c2cnn(Cc3c(-c4ccc(Cl)cc4F)nnn3C)c(=O)c2)cc1C [Example 104, 2-((5-(4-chloro-2-fluoro-phenyl)-3-methyl-triazol-4-yl)methyl)-5-(6-methoxy-5-methyl-3-pyridyl)pyridazin-3-one]
111%	2.11	17.2 nM	CCn1nnc(-c2ccc(Cl)cc2F)c1Cn1ncc(-c2cnn(C3CC3)c2)cc1=O [Example 105, 2-((4-(4-chloro-2-fluorophenyl)-1-ethyl-1H-1,2,3-triazol-5-yl)methyl)-5-(1-cyclopropyl-1H-pyrazol-4-yl)pyridazin-3(2H)-one]
72%	1.72	11.4 nM	Cn1nnc(-c2ccc(Cl)cc2F)c1Cn1ncc(-c2cnn(CC(F)F)c2)cc1=O [Example 106, 2-((5-(4-chloro-2-fluoro-phenyl)-3-methyl-triazol-4-yl)methyl)-5-(1-(2,2-difluoro-ethyl)pyrazol-4-yl)pyridazin-3-one]
234%	3.34	9 nM	Cn1nnc(-c2ccc(Cl)cc2F)c1Cn1ncc(-c2cccc(C#N)n2)cc1=O [Example 107, 6-(1-((5-(4-chloro-2-fluoro-phenyl)-3-methyl-triazol-4-yl)methyl)-6-oxo-pyridazin-4-yl)pyridine-2-carbonitrile]
46%	1.46	16.8 nM	COc1cc(-c2cnn(Cc3c(-c4ccc(Cl)cc4F)nnn3C)c(=O)c2)cnc1Cl [Example 108, 2-((5-(4-chloro-2-fluoro-phenyl)-3-methyl-triazol-4-yl)methyl)-5-(6-chloro-5-metlioxy-3-pyridyl)pyridazin-3-one]
75%	1.75	1.1 nM	C[C@@H]1CCCN1c1cnn(Cc2c(-c3ccc(Cl)nc3)nnn2C)c(=O)c1 [Example 109, 2-[[5-(6-chloro-3-pyridyl)-3-methyl-triazol-4-yl]methyl]-5-[(2R)-2-methylpyrrolidin-1-yl]pyridazin-3-one]
139%	2.39	8.8 nM	CCn1nnc(-c2ccc(Cl)cc2F)c1Cn1ncc(-c2cnc(OC)c(Cl)c2)cc1=O [Example 110, 2-((4-(4-chloro-2-fluorophenyl)-1-ethyl-1H-1,2,3-triazol-5-yl)methyl)-5-(5-chloro-6-methoxypyridin-3-yl)pyridazin-3(2H)-one]
290%	3.9	23.8 nM	CCn1nnc(-c2ccc(Cl)cc2F)c1Cn1ncc(-c2cccc(C#N)n2)cc1=O [Example 111, 6-(1-((4-(4-chloro-2-fluorophenyl)-1-ethyl-1H-1,2,3-triazol-5-yl)methyl)-6-oxo-1,6-dihydropyridazin-4-yl)picolinonitrile]
228%	3.28	12.8 nM	C[C@@H]1CN(c2cnn(Cc3c(-c4ccc(Cl)nc4)nnn3C)c(=O)c2)C[C@H](C)O1 [Example 112, 2-[[5-(6-chloro-3-pyridyl)-3-methyl-triazol-4-yl]methyl]-5-[(2S,6R)-2,6-dimethylmorpholin-4-yl]pyridazin-3-one]
98%	1.98	48.5 nM	Cc1ccnn1C1CN(c2cnn(Cc3c(-c4ccc(Cl)cc4F)nnn3C)c(=O)c2)C1 [Example 113, 2-[[5-(4-chloro-2-fluoro-phenyl)-3-methyl-triazol-4-yl]methyl]-5-[3-(5-methylpyrazol-1-yl)azetidin-1-yl]pyridazin-3-one]
154%		3.6 nM	COc1ncc(-c2cnn(Cc3c(-c4ccc(C)nn4)nnn3C)c(=O)c2)cc1Cl [Example 114, 5-(5-chloro-6-methoxy-3-pyridyl)-2-[[3-methyl-5-(6-methylpyridazin-3-yl)triazol-4-yl]methyl]pyridazin-3-one]
74%	1.74	47.4 nM	CCOC1CN(c2cnn(Cc3c(-c4ncc(C(F)(F)F)cn4)nnn3C)c(=O)c2)C1 [Example 115, 5-(3-ethoxyazetidin-1-yl)-2-[[3-methyl-5-[5-(trifluoromethyl)pyrimidin-2-yl]triazol-4-yl]methyl]pyridazin-3-one]
48%	1.48	66.1 nM	CC(C)OC1CN(c2cnn(Cc3c(-c4ncc(C(F)(F)F)cn4)nnn3C)c(=O)c2)C1 [Example 116, 5-(3-isopropoxyazetidin-1-yl)-2-[[3-methyl-5-[5-(trifluoromethyl)pyrimidin-2-yl]triazol-4-yl]methyl]pyridazin-3-one]
135%	2.35	15.4 nM	COc1ncc(-c2cnn(Cc3c(-c4ncc(C(F)(F)F)cn4)nnn3C)c(=O)c2)cc1Cl [Example 118, 5-(5-chloro-6-methoxypyridin-3-yl)-2-((1-methyl-4-(5-(trifluoromethyl)pyrimidin-2-yl)-1H-1,2,3-triazol-5-yl)methyl)pyridazin-3(2H)-one]
86%	1.86	29.6 nM	Cn1nnc(-c2ncc(C(F)(F)F)cn2)c1Cn1ncc(N2CC(OCC(F)F)C2)cc1=O [Example 119, 5-[3-(2,2-difluoro-ethoxy)azetidin-1-yl]-2-[[3-methyl-5-[5-(trifluoromethyl)pyrimidin-2-yl]triazol-4-yl]methyl]pyridazin-3-one]

SMILES	Efficacy (GABA) % (h-GABA-A α5β3γ2 [1])	Fold increase h-GABA-A α5β3γ2 oocyte (h-GABA-A α5β3γ2 [1])	Ki (h-GABA-A α5β3γ2 [2])
Cn1nnc(-c2ccc(Cl)cc2F)c1Cn1ncc(N2CC(OC(C)(C)C)C2)cc1=O [Example 96, 5-(3-tert-butoxyazetidin-1-yl)-2-[[5-(4-chloro-2-fluoro-phenyl)-3-methyl-triazol-4-yl]methyl]pyridazin-3-one]	54%	1.54	20.4 nM
CCn1nnc(-c2ccc(Cl)cc2F)c1Cn1ncc(N2CC(OC(C)(C)C)C2)cc1=O [Example 97, 5-(3-tert-butoxyazetidin-1-yl)-2-[[5-(4-chloro-2-fluoro-phenyl)-3-ethyl-triazol-4-yl]methyl]pyridazin-3-one]	115%	2.15	45.1 nM
Cn1nnc(-c2ncc(C(F)(F)F)cn2)c1Cn1ncc(N2CC(OC3CCC3)C2)cc1=O [Example 117, 5-[3-(cyclo-butoxy)azetidin-1-yl]-2-[[3-methyl-5-[5-(trifluoromethyl)pyrimidin-2-yl]triazol-4-yl]methyl]pyridazin-3-one]	87%	1.87	52.7 nM
